Test results reported in ChEMBL document CHEMBL1148171, “Flavonoids from Koelreuteria henryi and other sources as protein-tyrosine kinase inhibitors” (J Nat Prod, 1993).
Converted amounts (≈) assume the structure as drawn.

Assay: Inhibition of bovine thymus p56-LCK protein tyrosine kinase activity
Design: species or system Bos taurus

Compound	IC50 [µg/mL]
O=c1c(O)c(-c2ccc(O)cc2)oc2cc(O)cc(O)c12 [KAEMPFEROL]	8 (≈ 27.9 µM)
O=c1c(O[C@H]2OC[C@@H](O)[C@@H](O)[C@@H]2O)c(-c2ccc(O)cc2)oc2cc(O)cc(O)c12	200 (≈ 478 µM)
O=c1c(O)c(-c2ccccc2O)oc2cc(O)cc(O)c12 [DATISCETIN]	60 (≈ 210 µM)
O=c1c(O)c(-c2ccc(O)cc2O)oc2cc(O)cc(O)c12 [MORIN]	50 (≈ 165 µM)
O=c1c(O)c(-c2ccccc2)oc2cc(O)cc(O)c12 [GALANGIN]	30 (≈ 111 µM)
C[C@H]1O[C@H](Oc2c(-c3ccc(O)cc3)oc3cc(O)cc(O)c3c2=O)[C@@H](O)[C@@H](O)[C@@H]1O [KAEMPFEROL-3-O-RHAMNOSIDE]	400 (≈ 925 µM)
O=c1c(O)c(-c2ccc(O)cc2)oc2cc(O)ccc12 [RESOKAEMPFEROL]	5 (≈ 18.5 µM)
O=c1cc(-c2ccc(O)cc2)oc2cc(O)cc(O)c12 [APIGENIN]	4 (≈ 14.8 µM)
O=c1c(O)c(-c2ccc(O)c(O)c2)oc2cc(O)cc(O)c12 [QUERCETIN]	8 (≈ 26.5 µM)
Cc1cc(O)c2c(c1)C(=O)c1cc(O)cc(O)c1C2=O [EMODIN]	10 (≈ 37 µM)
O=c1c(O)c(-c2cc(O)c(O)c(O)c2)oc2cc(O)cc(O)c12 [MYRICETIN]	10 (≈ 31.4 µM)
COc1ccc(-c2oc3cc(O)cc(O)c3c(=O)c2O)cc1 [KAEMPFERIDE]	30 (≈ 99.9 µM)
O=c1cc(-c2ccc(O)c(O)c2)oc2cc(O)cc(O)c12 [LUTEOLIN]	4 (≈ 14 µM)
